In US7775469B2, “Purposeful movement of human migratory cells away from an agent source” (The General Hospital Corporation, priority 1999, dated 2010):

Tests used:
[1] = tested on: TN, DP and SP subpopulations of fetal thymocytes; test: Transwell transmigration of fetal thymocytes to SDF-1α; format: cell-based, human
Text: (§1) Human fetal thymi and peripheral blood samples were obtained from 16 to 22 week abortuses according to Institutional Review Board approved guidelines. Thymi were physically disaggregated and mononuclear cell suspensions generated. Thymocytes were stained with CD8 (FITC), CD3 (PE) and CD4 (APC) and sorted into purified subpopulations of triple negative immature thymocytes (TN) (CD3^−, CD4^−, CD8^−) and mature double positive (DP) (CD4^+CD8^+) and single positive (SP) thymocytes (CD3^+CD4^+ or CD3^+CD8^+) by cell sorting. Fetal blood mononuclear cells (FBMC) were prepared from fetal blood using Ficoll-Hypaque as above. FBMC were labeled with CD8 (FITC), CD3 (PE), CD4 (APC) and anti-CD45RA (FITC). Purified populations of CD4^+CD45RA^+ and CD8^+CD45RA^+ T-cells were sorted cultured overnight in serum free Iscoves modified medium prior to use in chemotaxis assays.
(§2) Three chemotaxis assays were used in this study. First, quantitative chemotaxis transmigration assays were performed using a transwell system (Corning Inc., NY) (6.5 mm diameter, 5 μm pore size, polycarbonate membrane) as previously described^13. […]
(§3) Transwells prepared in this way were incubated for 3 hours at 37° C., 5% CO2 incubator. Cells were harvested from the lower chamber after 3 hours and cell counts, immunophenotype and CXCR-4 chemokine receptor expression determined.

[2] = tested on: peripheral T-cell subpopulations; test: Semi-quantitative migration assay in methylcellulose, time lapse videomicroscopy; format: cell-based, human; details: SDF-1α loaded at fixed position, 10 μg/ml or 100 ng/ml
Procedure: In the third semi-quantitative migration assay, T-cell subpopulations (1×10^5 cells) were mixed with 0.5 ml of 0.5% methylcellulose (Stem Cell Technologies, Vancouver, BC) in sterile medium and plated in a 24 well plate.
[…]
To further validate the process of concentration dependent directional movement, a third transmigration assay was used. […] The movement of a gradient across the methylcellulose was documented in independent experiments by monitoring a dye front through the culture; a process not achieving equilibrium over the duration of our incubations.

[3] = tested on: adult peripheral blood T-cell subpopulations; test: Semi-quantitative transmigration assay with tissue culture insert as SDF-1α reservoir; format: cell-based, human
Procedure: The second semi-quantitative transmigration assay involved the use of a tissue culture insert (6.5 mm diameter, 0.45 μm pore size, polycarbonate membrane) (Millipore, Bedford Mass.). Adult peripheral blood T-cell subpopulations (1×10^5 cells) were plated into the wells of a 12-well tissue-culture dish in serum-free Iscove's medium. The tissue-culture plate was then incubated at 37° C. for 1 hour to allow the cells to settle evenly over the base of the well. […] The tissue culture insert was gently placed in the center of the well of the 12-well tissue-culture plate leaving a gap of 0.3 cm between the edge of the insert and the edge of the well of the tissue culture plate. The well with transwell insert was incubated for up to 18 hours at 37° C. on the heated stage of a microscope and viewed by time lapse videomicroscopy recording at 120 frames per hour or by Polaroid still photography. Maintenance of a gradient was assessed by loading of methylene blue into the insert and observing a preserved gradient of color over the incubation period.

[4] = tested on: adult peripheral blood T-cell subpopulations; test: Transwell transmigration assay with SDF-1α, adult peripheral blood T-cells; format: cell-based, human; details: for T-cells transmigrating in response to a positive gradient of SDF-1α: SDF-1α 100 ng/ml
Text: Peripheral blood was obtained from 12 healthy donors (age 25-40 years, median age 31). Peripheral blood mononuclear cells (PBMC) were obtained from peripheral blood using Ficoll-Hypaque. PBMC were stained with anti-CD4 (PE), anti-CD8 (PE), anti-CD45RA (FITC), anti-CD45RO (FITC) (Becton-Dickinson, San Jose, Calif.). The CD4^+CD45RA^+, CD4^+CD45RO^+ and CD8^+CD45RA^+ or CD8^+CD45RO^+ subpopulations of peripheral blood cells were sorted using a FACS vantage sorter (Becton-Dickinson, San Jose, Calif.). […] Sorted adult peripheral blood T-cell subpopulations were cultured overnight in serum-free Iscoves modified medium (GIBCO BRL, Gaithersburg, Md.), prior to their use in chemotaxis assays.
Three chemotaxis assays were used in this study. First, quantitative chemotaxis transmigration assays were performed using a transwell system (Corning Inc., NY) (6.5 mm diameter, 5 μm pore size, polycarbonate membrane) as previously described^13. Purified T-cell and thymocyte subpopulations (5×10^4 cells) were added to the upper chamber of each well in a total volume of 150 μl of IMDM alone. […] Cells were pretreated with pertussis toxin (PTX) 100 ng/ml for 1 hour, genistein (1 μg/ml for 20 minutes), herbimycin (1 μM for 20 minutes) or wortmannin (1 μM for 20 minutes) (Sigma Chemical Company, St Louis, Mo.) in a tissue culture incubator at 37° C. and 5% CO2 prior to their addition to the upper chambers of the transwells in selected experiments.
as §3

C57/B6 mice = test: T-cell infiltration into the site of a secondary immune response (Ova challenge, peritoneal lavage) after SDF-1; format: in vivo, mouse; details: 24 hours
Procedure: C57/B6 mice (Jackson Laboratories, ME) were obtained and primed subcutaneously with 100 μg chicken ovalbumin (Sigma) containing less than 0.01% LPS by the limulus assay and dissolved in 100 μl of Complete Freund's Adjuvant (CFA) (Sigma). Three days ova-primed mice were challenged by intraperitoneal (IP) injection with 100 μg of ovalbumin (Ova) dissolved in 250 μl of ddH20. […] These mice were then euthanized 24 hours following the second IP injection and peritoneal lavage with 5 mls of PBS performed with direct visualization of the peritoneal sac and its contents in order to avoid peripheral blood contamination. Peritoneal fluid cells harvested in this way contained <0.1% red blood cells. Three groups of control mice were used. In the first, C57/B6 mice were euthanized prior to Ova-priming and a peritoneal lavage performed. The second group of control mice were primed subcutaneously and challenged with Ova intraperitoneally as above and then euthanized 24 hours later. […]
Cells harvested from the peritoneal fluid were counted with a hemocytometer and their viability determined by Trypan blue exclusion and the total viable nucleated cell count per ml of peritoneal fluid was determined. […] The proportion of T-cells of each subpopulation (CD3^+, CD3^+CD4^+, CD3^+CD8^+) was determined as a percentage of the total nucleated cell fraction in the peritoneal fluid. […]

[5] = tested on: adult peripheral blood T-cell subpopulations; details: reported in the literature; cited from earlier work
[6] = tested on: CD4+CD45RA+ and CD8+CD45RA+ fetal blood T-cells; test: Transwell transmigration of fetal blood T-cells to SDF-1α; format: cell-based, human
Text: as §1, §2, §3

SDF-1α
cell movement in response to SDF-1α ([1]; TN, DP, SP fetal thymocytes and fetal blood T-cells): minimal cell movement in response to SDF-1α except in the most immature TN subset
fugetaxis above background chemokinesis ([1]; thymocyte subpopulations, even at 1 μg/ml and 10 μg/ml): In no thymocyte subpopulation was fugetaxis noted above background chemokinesis levels
direction of T-cell movement in methylcellulose [2]: away from high concentrations of SDF-1α and towards low concentrations
direction of T-cell migration relative to insert ([3]; insert contained 10 μg/ml SDF-1α): migrate towards the source of SDF-1α and a second population to migrate away
direction of T-cell migration relative to insert ([3]; insert contained SDF-1α at 100 ng/ml): Only movement toward the insert was seen
concentration of maximal fugetaxis ([4]; CD4+CD45RA+ cells): 10 µg/mL
T-cells transmigrating in response to a positive gradient of SDF-1α ([4]; CD4+CD45RA+ cells): 85%
T-cells transmigrating in response to a positive gradient of SDF-1α ([4]; CD4+CD45RO+ cells): 79%
T-cells transmigrating in response to a positive gradient of SDF-1α ([4]; CD8+CD45RA+ cells): 97%
T-cells transmigrating in response to a positive gradient of SDF-1α ([4]; CD8+CD45RO+ cells): 51%
concentration of maximal fugetaxis ([4]; CD8+CD45RO+, CD8+CD45RA+ and CD4+CD45RO+ cells): 1 µg/mL
concentration of peak chemoattractant activities ([4]; all four adult T-cell subpopulations): 100 ng/mL
decline of chemotaxis toward SDF-1α ([4]; concentration increased from 100 ng/ml to 10 μg/ml, all cells): ≤ 27 fold
concentration at which agent acts as potent fugetactic agent to immune cells ([4]; mature T cells): higher than 200 ng/ml
T cell accumulation at site of Ova challenge (C57/B6 mice; SDF-1 low dose (100 ng/ml) IP, vs sham or PBS): No significant differences
T cell infiltration at site of Ova challenge (C57/B6 mice; high dose SDF-1 (5 μg/ml) IP, p=0.02 vs controls): blunted significantly below that of controls
concentration at which reported as lymphocyte chemoattractant [5]: lower than 100 ng/ml
concentration of maximal chemotactic responses [6]: 100 ng/mL
